Data from paper PMC4784921, “Antioxidant Activity and α-Glucosidase Inhibitory Activities of the Polycondensate of Catechin with Glyoxylic Acid” (PLoS ONE, 2016).
Converted amounts (≈) assume the structure as drawn.

Molecular target: T1, α-glucosidase (from Saccharomyces cerevisiae)
T1 construct: gene MAL12; commercial enzyme from Sigma (St. Louis, MO)
Assay: absorbance at […] nm, pNP-G hydrolysis
Type: biochemical
Conditions: pNP-G substrate (1 mL of 1 mM), 0.1 M PBS pH 6.9, 37°C, 10 min preincubation; mixed noncompetitive and anticompetitive

IC50: 239.27 µg/mL (≈ 824 µM)
SMILES: Oc1cc(O)c2c(c1)O[C@H](c1ccc(O)c(O)c1)[C@@H](O)C2 [catechin]
